Data as given in patent publication US8414885B2, “Methods and compositions for treating cancer” (priority 2009, dated 2013).
Peptide text beside a SMILES is read from it. * marks the point of attachment. Cbz = O=C(OCc1ccccc1)*; CH2F = FC*

What was measured:
Format in all cases: cell-based, human
[1] = system: melanoma cultures (A2058, MeWo, SM, A375); assay: Virus growth by plaque assay (burst size) in melanoma cultures; conditions: delta-PK infected melanoma cultures
Description: FIG. 3. Delta-PK is a growth-restricted replication competent oncolytic virus. A. Vero cells were infected with HSV-2, delta-PK, or HSV-2(R) (moi=0.5) in serum-free medium and virus titers were determined by plaque assay. Results are expressed as mean pfu/cell (burst size). B. A2058, MeWo, SM, A375 and Wi-38 cells were infected with delta PK and examined for virus growth. […] C. Delta-PK infected A2058 and WI-38, cells were stained with Alexafluor-488 labeled ICP10 and Alexafluor-594 labeled VP5 antibodies in double immunofluorescence. Cells were counted in 3 randomly selected fields (≧250 cells) and the % staining cells calculated relative to total cells identified by DAPI staining. Quantitative results are shown for A2058 cell at 4-72 hrs p.i., and for WI-38 cells at 48 hrs p.i. Similar results were obtained for the partially purified virus.
To measure virus replication in culture, cells were infected at a multiplicity of infection (moi) of 0.5 pfu/cell. Adsorption was for 1 hr at 4 degrees C. (synchronized infection). […] Virus titers were determined by plaque assay on Vero cells and the results are expressed as mean pfu/cell (burst size), as described (Li B, Smith C C, Laing J M, Gober M D, Liu L, Aurelian L. Overload of the heat-shock protein H11/HspB8 triggers melanoma cell apoptosis through activation of transforming growth factor-beta-activated kinase 1. Oncogene 2007; 26: 3521-3531). […]

A2058 cells = assay: EtHD cell death with or without protease inhibitors, A2058; conditions: A2058, delta-PK moi=0.5, 72 hrs p.i.; PD150606 100 μM or z-VAD-fmk 20 μM
Description: (§1) FIG. 7. Delta-PK induced melanoma cell death is both calpain and caspase-dependent. A. A2058 cells were infected with delta-PK (moi=0.5) or mock-infected with PBS and cultured without or with PD150606 (100 μM), z-VAD-fmk (20 µM) or both PD150606 and z-VAD-fmk. DMSO (28 mM) was used as vehicle control. Replicate cultures (n=3) were stained with EtHD at various times p.i. and the % staining cells calculated. B. A375 cells were infected with delta-PK (moi=0.5) in the absence or presence of inhibitors and stained with EtHD+. Delta-PK infected WI-38 cells and mock infected DMSO treated cells served as controls.
(§2) Cell death was determined by trypan blue exclusion and staining with ethidium homodimer-1 (EtHD), a cell impermeable red fluorescent nuclear stain that increases intensity after binding to the DNA of dead cells. […] Dead cells were counted by four independent hemacytometer counts. […] Stained cells were counted in five randomly selected 3 mm^2 fields (≧250 cells each), and the % positive cells was calculated relative to total number of cells imaged by phase contrast microscopy (Gober M D, Laing J M, Thompson S M, Aurelian L. The growth compromised HSV-2 mutant DeltaRR prevents kainic acid-induced apoptosis and loss of function in organotypic hippocampal cultures. Brain Res 2006; 1119: 26-39). […]

A375 cells = assay: EtHD cell death with or without protease inhibitors, A375; conditions: A375, delta-PK moi=0.5, 72 hrs p.i.; PD150606 100 μM or z-VAD-fmk 20 μM
Description: as §1, §2

SMILES	effect of inhibitor on virus growth [1]	% EtHD+ cells in delta-PK infected cultures in presence of inhibitor (A2058 cells)	% EtHD+ cells in delta-PK infected cultures in presence of inhibitor (A375 cells)
O=C(O)/C(S)=C/c1ccc(I)cc1 [PD150606]	neither PD150606, nor z-VAD-fmk had any effect	30.7+/−2.8%	49.1+/−2.5%
COC(=O)C[C@H](NC(=O)[C@H](C)NC(=O)[C@@H](NC(=O)OCc1ccccc1)C(C)C)C(=O)CF [z-VAD-fmk, benzyloxcarbonyl-Val-Ala-Asp-fluormethyl ketone] (Cbz-Val-Ala-Asp(OMe)-CH2F)	neither PD150606, nor z-VAD-fmk had any effect	35.8+/−2.5%	49.6+/−3.7%
